For the experiment, the target named is T1, Interleukin-1 receptor-associated kinase 4 (Homo sapiens, UniProt Q9NWZ3).
T1 sequence (Q9NWZ3 whole entry): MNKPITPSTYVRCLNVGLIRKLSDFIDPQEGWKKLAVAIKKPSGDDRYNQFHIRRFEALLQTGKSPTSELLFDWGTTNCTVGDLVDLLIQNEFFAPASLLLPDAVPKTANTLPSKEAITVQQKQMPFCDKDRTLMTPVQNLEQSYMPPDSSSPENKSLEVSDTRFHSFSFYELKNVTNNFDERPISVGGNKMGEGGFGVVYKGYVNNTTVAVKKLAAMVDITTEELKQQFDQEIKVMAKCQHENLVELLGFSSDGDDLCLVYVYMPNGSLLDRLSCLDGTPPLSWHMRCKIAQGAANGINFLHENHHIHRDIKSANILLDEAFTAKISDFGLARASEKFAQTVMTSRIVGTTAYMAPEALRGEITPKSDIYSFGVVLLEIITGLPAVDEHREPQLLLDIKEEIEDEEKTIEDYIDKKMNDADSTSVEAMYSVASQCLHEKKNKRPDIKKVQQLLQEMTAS
The experiment can be described thus: Biochemical Assay: A Z′-Lyte assay based on a fluorescence resonance energy transfer (FRET) readout was developed for measuring IRAK4-dependent phosphorylation of a FRET-peptide substrate as described by Thermo Fisher Scientific (Grand Island, N.Y.). At a starting concentration of 1.5 mM, the identified compounds were serially diluted with 100% dimethyl sulfoxide (DMSO) in 3-fold increments, into Greiner bio-one 96-well plates (cat. #: 650201, Greiner bio-one, Monroe, N.C.). Compounds were then transferred to intermediate Greiner bio-one 96-well plates and diluted 10-fold with Kinase assay buffer (25 mM HEPES, pH 7.5, 10 mM MgCl2, 10 mM MnCl2, 1 mM EGTA, and 0.01% Brij-35, 2 mM DTT). Three μL of the serially diluted compounds were then transferred in duplicate to low-volume 384-well black proxiplates (cat. #: 6008269; Perkin Elmer, Akron, Ohio), to give duplicate twelve-point concentration curves. Six μl of a 2.5× solution of IRAK4 enzyme (cat #: 40064, BPS Bioscience, San Diego, Calif.) in kinase buffer was added to each well, followed by a 10 minutes pre-incubation step. Reactions were initiated by adding 6 μl of a 2.5× substrate mix of ATP and Z′-Lyte Ser/Thr 7 peptide (cat. #: PV3180, Thermo Fisher Scientific, Grand Island, N.Y.) and proceeded at room temperature for 1 hour. […].

Molecules are shown by their SMILES. pIC50: −log10 of the molar value. Where only a bound is given, the exact number is not on record here.

`O=C1CCC(N2C(=O)c3ccc(OC4CCC(CN5CCN(Cc6ccc7c(c6)nc(NC(=O)c6cccc(C(F)(F)F)c6)n7C6CCC(CO)CC6)CC5)CC4)cc3C2=O)C(=O)N1` (stereo unspecified) gave a pIC50 of over 7.52.

As usually defined, the pIC50 is −log10 of the IC50, conventionally taken in molar units. Low values mean a large IC50, high ones a small IC50.
